Results reported in article PMC6163080 (Journal of chromatography. B, Analytical technologies in …, 2018).

Assays:
[1] = tested on: replicating Mtb; conditions: in vitro; ref [2]; cited from earlier work
[2] = tested on: MtMetAP1c; conditions: high-throughput screening; ref [2], [17]; cited from earlier work
[3] = Pharmacokinetic study, single IV bolus in adult male Sprague Dawley rats; format: in vivo; conditions: for AUC(0-inf) / C0 / clearance / half-life / Vd: male, Sprague Dawley, rat, plasma, iv
[4] = tested on: human MetAPs; conditions: in vitro; ref [2]; cited from earlier work
[5] = Stability of CLBQ14 in rat urine samples; format: in vitro ADME, Sprague Dawley rat
[6] = tested on: MtMetAP1a; conditions: high-throughput screening; ref [2], [17]; cited from earlier work
[7] = tested on: aged non-growing Mtb; conditions: in vitro; ref [2]; cited from earlier work
[8] = Stability of CLBQ14 in rat plasma samples; format: in vitro ADME, Sprague Dawley rat
[9] = 2 mg/kg single IV bolus, male SD rats, n = 4, mean ± SD
[10] = 5 mg/kg single IV bolus, male SD rats, n = 3, mean ± SD
[11] = 10 mg/kg single IV bolus, male SD rats, n = 4, mean ± SD
[12] = Sprague Dawley, rat, Freeze-thaw cycle stability, mean recovery ± SD
[13] = Sprague Dawley, rat, Processed sample or auto-sampler stability, mean recovery ± SD, No IS
[14] = Sprague Dawley, rat, Processed sample or auto-sampler stability, mean recovery ± SD, With IS
[15] = Sprague Dawley, rat, Short-term (bench-top) stability, mean recovery ± SD

## Oc1c(Br)cc(Cl)c2cccnc12 [CLBQ14, 7-bromo-5-chloroquinolin-8-ol]
[1]
  Potency against replicating Mtb: great potency
[2]
  Inhibition of MtMetAP1c: potent and selective inhibitor
[3]; [9]
  A (coefficient of distributional phase): 1.39 ± 0.27 mg/L
  B (coefficient of terminal phase): 0.05 ± 0.00 mg/L
[3]; [10]
  A (coefficient of distributional phase): 3.14 ± 0.42 mg/L
  B (coefficient of terminal phase): 0.09 ± 0.04 mg/L
[3]; [11]
  A (coefficient of distributional phase): 5.09 ± 1.36 mg/L
  B (coefficient of terminal phase): 0.17 ± 0.07 mg/L
[3]; after 24 hr, IV bolus, male SD rats
  Administered dose excreted unchanged in urine: 0.19 ± 0.04%
[3]; 2 mg/kg
  AUC(0-inf): 1360 ± 60 ng·h/mL
  C0: 1440 ± 270 ng/mL
[3]; 2 mg/kg, Cl (total clearance), 2 mg/kg single IV bolus, male SD rats, n = 4, mean ± SD
  clearance: 24.7 mL/min/kg
[3]; 2 mg/kg, T1/2α (half-life of distributional phase), 2 mg/kg single IV bolus, male SD rats, n = 4, mean ± SD
  half-life: 9.6 ± 2.4 min
[3]; 2 mg/kg, T1/2β (elimination half-life of the beta elimination phase), 2 mg/kg single IV bolus, male SD rats, n = 4, mean ± SD
  half-life: 888 ± 31.8 min
[3]; 2 mg/kg, Vss (volume of distribution at steady state), 2 mg/kg single IV bolus, male SD rats, n = 4, mean ± SD
  Vd: 24.3 ± 1.28 L/kg
[3]; 5 mg/kg
  AUC(0-inf): 1960 ± 400 ng·h/mL
  C0: 3240 ± 440 ng/mL
[3]; 5 mg/kg, Cl (total clearance), 5 mg/kg single IV bolus, male SD rats, n = 3, mean ± SD
  clearance: 43.7 mL/min/kg
[3]; 5 mg/kg, T1/2α (half-life of distributional phase), 5 mg/kg single IV bolus, male SD rats, n = 3, mean ± SD
  half-life: 10.2 ± 1.8 min
[3]; 5 mg/kg, T1/2β (elimination half-life of the beta elimination phase), 5 mg/kg single IV bolus, male SD rats, n = 3, mean ± SD
  half-life: 600 ± 276 min
[3]; 5 mg/kg, Vss (volume of distribution at steady state), 5 mg/kg single IV bolus, male SD rats, n = 3, mean ± SD
  Vd: 23.2 ± 11.5 L/kg
[3]; 10 mg/kg
  AUC(0-inf): 4830 ± 740 ng·h/mL
  C0: 5270 ± 1430 ng/mL
[3]; 10 mg/kg, Cl (total clearance), 10 mg/kg single IV bolus, male SD rats, n = 4, mean ± SD
  clearance: 35.2 mL/min/kg
[3]; 10 mg/kg, Estimated total plasma clearance, across the 3 groups (2, 5 and 10 mg/kg IV bolus), male SD rats
  clearance: ≤ 43.7 mL/min/kg
[3]; 10 mg/kg, Steady state volume of distribution, across the 3 groups (2, 5 and 10 mg/kg IV bolus), male SD rats
  Vd: ≤ 25.3 L/kg
[3]; 10 mg/kg, T1/2α (half-life of distributional phase), 10 mg/kg single IV bolus, male SD rats, n = 4, mean ± SD
  half-life: 15 ± 5.4 min
[3]; 10 mg/kg, T1/2β (elimination half-life of the beta elimination phase), 10 mg/kg single IV bolus, male SD rats, n = 4, mean ± SD
  half-life: 804 ± 215 min
[3]; 10 mg/kg, Vss (volume of distribution at steady state), 10 mg/kg single IV bolus, male SD rats, n = 4, mean ± SD
  Vd: 27.3 ± 11.6 L/kg
[4]
  Selectivity for both MtMetAPs over human MetAPs: great selectivity
[5]
  Stability at room temperature: stable for up to 6 hours
[6]
  Inhibition of MtMetAP1a: potent and selective inhibitor
[7]
  Potency against aged non-growing Mtb: increased potency
[8]; [12]
  recovery at 2.5 ng/mL: 104 ± 4.72%
  recovery at 400 ng/mL: 95.9 ± 1.89%
  recovery at 800 ng/mL: 96.8 ± 1.25%
[8]; Sprague Dawley, rat, Long-term stability, mean recovery ± SD
  recovery at 14 days: ≤ 91.3%
[8]; Sprague Dawley, rat, Mean recovery after three freeze-thaw cycles
  recovery: > 95.9%
[8]; [13]
  recovery at 2 h: 97.8 ± 1.11%
  recovery at 4 h: 97.1 ± 5.42%
  recovery at 6 h: 95.5 ± 6.69%
[8]; [14]
  recovery at 2 h: 95.9 ± 1.87%
  recovery at 4 h: 94.7 ± 4.2%
  recovery at 6 h: 97.3 ± 5.55%
[8]; [15]
  recovery at 2 h: 91.6 ± 4.06%
  recovery at 4 h: 95.1 ± 3.24%
  recovery at 6 h: 93.7 ± 1.17%
[8]; rat plasma samples, room temperature
  Stability at room temperature: stable for up to 6 hours
